According to the NIST ThermoML archive (doi:10.1021/je800375t):

Details: Liquid

COC [dimethyl ether]
Details | vapor or sublimation pressure [kPa]
213.08 K | 16.46
218.11 K | 22.24
223.15 K | 29.61
228.06 K | 38.64
233.09 K | 49.96
238.11 K | 63.84
243.07 K | 80.36
248.12 K | 100.43
253.12 K | 124.09
258.13 K | 152.4
263.13 K | 184.96
268.13 K | 222.7
273.17 K | 266.5
278.17 K | 316.12
283.16 K | 372.9
288.13 K | 436.69
293.17 K | 509.01
298.08 K | 588.17
298.78 K | 600.51
303.15 K | 679.68
303.78 K | 691.56
308.13 K | 778.92
313.17 K | 889.98
318.16 K | 1011.5
323.17 K | 1144.7
328.16 K | 1290.2
333.17 K | 1449.2
338.17 K | 1621.5
343.16 K | 1809.1
348.16 K | 2012.4
353.16 K | 2232.3
358.16 K | 2468.9
363.16 K | 2723.3
368.14 K | 2996.4
373.14 K | 3291.2
378.15 K | 3608.6
383.15 K | 3948.6
388.16 K | 4313.9
393.16 K | 4706.2
